# Patent EP1561465A2, “Methods of use of fluoroquinolone compounds against bacteria” (LG Life Sciences, Ltd., priority 1999, dated 2001)
# Like-named read-outs stand apart in the source and are kept apart here.
# Legend:
# [1] = test system: Salmonella spp.; assay: MIC by agar dilution (NCCLS M7-A4), 288 enteropathogenic isolates, gemifloxacin and 15 other antimicrobials; assay type: cell-based; settings: for susceptible isolates / Rates of non-susceptible microorganisms: Salmonella spp.; for susceptible isolates: breakpoints; for MIC: Salmonella
# [2] = test system: Shigella spp.; assay: as above; assay type: cell-based; settings: for susceptible isolates: breakpoints
# Protocol: [A. hydrophila (12), and A. sobria (4)], and 91 Campylobacter jejuni. […] The strains were stored in skimmed-milk at -80 °C until studied.
# The plates were incubated aerobically at 35 °C for 24 h, except for Campylobacter jejuni, where a microaerophilic atmosphere was obtained by using Campy Pack (Becton Dickinson, Cockeysville, MD, USA), and incubation was for 48 h. All organisms were tested with an inoculum of ≅ 10^4 cfu/spot. MICs were defined as the lower antibiotic concentration with no visible growth.
# [3] = test system: Aeromonas spp.; assay: as above; assay type: cell-based
# [4] = test system: Hafnia alvei; assay: as above; assay type: cell-based
# [5] = test system: Yersinia enterocolitica; assay: as above; assay type: cell-based
# [6] = test system: Campylobacter jejuni; assay: as above
# [7] = test system: Enterobacter spp.; assay: MIC by agar dilution (NCCLS), 322 nosocomial Gram negative isolates, Athens 1998; assay type: cell-based
# [8] = read-out: MIC (mg/L) 50%, Salmonella spp. N= 106
# [9] = read-out: MIC (mg/L) 90%, Salmonella spp. N= 106
# [10] = read-out: MIC (mg/L) 50%, Aeromonas spp. N= 16
# [11] = read-out: MIC (mg/L) 90%, Aeromonas spp. N= 16
# [12] = 24 h, Hafnia alvei N= 32, read-out: MIC (mg/L) Range
# [13] = read-out: MIC (mg/L) 50%, Hafnia alvei N= 32
# [14] = read-out: MIC (mg/L) 90%, Hafnia alvei N= 32
# [15] = 24 h, Yersinia enterocolitica N= 22, read-out: MIC (mg/L) Range
# [16] = read-out: MIC (mg/L) 50%, Yersinia enterocolitica N= 22
# [17] = read-out: MIC (mg/L) 90%, Yersinia enterocolitica N= 22
# [18] = Campylobacter jejuni, read-out: MIC (mg/L) 50%
# [19] = Campylobacter jejuni, read-out: MIC (mg/L) 90%
# [20] = read-out: MIC (mg/L) 50%, Shigella spp. N= 21
# [21] = read-out: MIC (mg/L) 90%, Shigella spp. N= 21
molecule,measurement,setting,value
colistin,% Susceptible,[1]; Salmonella spp. N= 106,32%
same,MIC (mg/L) 50%,[1]; Salmonella spp. N= 106,8 mg/L
same,MIC (mg/L) 90%,[1]; Salmonella spp. N= 106,8 mg/L
same,susceptible isolates,[1],32%
same,% Susceptible,[2]; Shigella spp. N= 21,100%
same,MIC (mg/L) 50%,[2]; Shigella spp. N= 21,0.25 mg/L
same,MIC (mg/L) 90%,[2]; Shigella spp. N= 21,0.25 mg/L
same,MIC (mg/L) Range,[2]; Shigella spp. N= 21,0.25 mg/L
same,% Susceptible,[3]; Aeromonas spp. N= 16,81%
same,MIC (mg/L) 50%,[3]; Aeromonas spp. N= 16,2 mg/L
same,MIC (mg/L) 90%,[3]; Aeromonas spp. N= 16,4 mg/L
same,MIC (mg/L) Range,[3]; Aeromonas spp. N= 16,0.25 to 32 mg/L
same,% Susceptible,[4]; Hafnia alvei N= 32,6%
same,MIC (mg/L) 50%,[4]; Hafnia alvei N= 32,8 mg/L
same,MIC (mg/L) 90%,[4]; Hafnia alvei N= 32,16 mg/L
same,MIC (mg/L) Range,[4]; Hafnia alvei N= 32,0.5 to 16 mg/L
same,% Susceptible,[5]; Yersinia enterocolitica N= 22,100%
same,MIC (mg/L) 50%,[5]; Yersinia enterocolitica N= 22,1 mg/L
same,MIC (mg/L) 90%,[5]; Yersinia enterocolitica N= 22,1 mg/L
same,MIC (mg/L) Range,[5]; Yersinia enterocolitica N= 22,0.5 to 1 mg/L
same,% Susceptible,[6]; Campylobacter jejuni N= 91,3%
same,MIC (mg/L) 50%,[6]; Campylobacter jejuni N= 91,4 mg/L
same,MIC (mg/L) 90%,[6]; Campylobacter jejuni N= 91,8 mg/L
same,MIC (mg/L) Range,[6]; Campylobacter jejuni N= 91,1 to 32 mg/L
"C[C@H]1c2cccc(O)c2C(=O)C2=C(O)[C@]3(O)C(=O)C(C(N)=O)=C(O)[C@@H](N(C)C)[C@@H]3[C@@H](O)[C@@H]21 [Doxycycline, doxycycline]",Rates of non-susceptible microorganisms,[1],22%
same,MIC (mg/L) Range,[1]; Salmonella spp. N= 106,1 to 128 mg/L
same,MIC,[1]; [8],2 mg/L
same,MIC,[1]; [9],16 mg/L
same,Rates of non-susceptible microorganisms,[2]; Shigella spp.,43%
same,MIC,"[2]; Shigella, 24 h, read-out: MIC (mg/L) Range",0.5 to 32 mg/L
same,MIC,"[2]; Shigella, read-out: MIC (mg/L) 50%",16 mg/L
same,MIC,"[2]; Shigella, read-out: MIC (mg/L) 90%",32 mg/L
same,MIC (mg/L) Range,[3]; Aeromonas spp. N= 16,0.25 to 4 mg/L
same,MIC,[3]; [10],0.5 mg/L
same,MIC,[3]; [11],2 mg/L
same,MIC,[4]; [12],1 to 16 mg/L
same,Rates of non-susceptible microorganisms,[4]; Hafnia alvei,22%
same,MIC,[4]; [13],2 mg/L
same,MIC,[4]; [14],8 mg/L
same,MIC,[5]; [15],0.25 to 8 mg/L
same,Rates of non-susceptible microorganisms,[5]; Yersinia enterocolitica,5%
same,MIC,[5]; [16],1 mg/L
same,MIC,[5]; [17],2 mg/L
same,Rates of non-susceptible microorganisms,[6]; Campylobacter jejuni,40%
same,MIC (mg/L) Range,[6]; Campylobacter jejuni N= 91,0.06 to 64 mg/L
same,MIC,[6]; [18],16 mg/L
same,MIC,[6]; [19],32 mg/L
"CO/N=C(\C(=O)N[C@@H]1C(=O)N2C(C(=O)O)=C(COC(C)=O)CS[C@H]12)c1csc(N)n1 [Cefotaxime, cefotaxime]",MIC (mg/L) Range,[1]; Salmonella spp. N= 106,0.06 to 0.5 mg/L
same,susceptible isolates,[1],100%
same,MIC,[1]; [8],0.12 mg/L
same,MIC,[1]; [9],0.12 mg/L
same,MIC,"[2]; 24 h, Shigella spp. N= 21, read-out: MIC (mg/L) Range",0.015 to 0.03 mg/L
same,susceptible isolates,[2]; Shigella spp.,100%
same,MIC,[2]; [20],≤ 0.015 mg/L
same,MIC,[2]; [21],0.03 mg/L
same,MIC (mg/L) Range,[3]; Aeromonas spp. N= 16,≤0.015 to 0.12 mg/L
same,susceptible isolates,"[3]; Aeromonas spp., breakpoints",100%
same,MIC,[3]; [10],0.03 mg/L
same,MIC,[3]; [11],0.12 mg/L
same,MIC,[4]; [12],0.12 to 0.5 mg/L
same,susceptible isolates,"[4]; Hafnia alvei, breakpoints",100%
same,MIC,[4]; [13],0.25 mg/L
same,MIC,[4]; [14],0.5 mg/L
same,MIC,[5]; [15],0.06 to 0.12 mg/L
same,susceptible isolates,"[5]; Yersinia enterocolitica, breakpoints",100%
same,MIC,[5]; [16],0.06 mg/L
same,MIC,[5]; [17],0.06 mg/L
same,susceptible isolates,"[6]; C. jejuni, breakpoints",57%
same,MIC (mg/L) Range,[6]; Campylobacter jejuni N= 91,2 to 32 mg/L
same,MIC,[6]; [18],8 mg/L
same,MIC,[6]; [19],16 mg/L
CC(C)(O/N=C(\C(=O)N[C@@H]1C(=O)N2C(C(=O)[O-])=C(C[n+]3ccccc3)CS[C@H]12)c1csc(N)n1)C(=O)O [Cetfazidime],MIC50,[7]; Enterobacter,1 µg/mL
same,MIC90,[7]; Enterobacter,> 64 µg/mL
same,MIC distribution (µg/ml) 0.06,[7]; {},1
same,MIC distribution (µg/ml) 0.25,[7]; {},16
same,MIC distribution (µg/ml) 0.5,[7]; {},3
same,MIC distribution (µg/ml) 1,[7]; {},2
same,MIC distribution (µg/ml) 2,[7]; {},1
same,MIC distribution (µg/ml) 4,[7]; {},0
same,MIC distribution (µg/ml) 8,[7]; {},2
same,MIC distribution (µg/ml) 16,[7]; {},6
same,MIC distribution (μg/ml) 32,[7]; {},3
same,MIC distribution (μg/ml) 64,[7]; {},2
CC1(C)S[C@@H]2[C@H](NC(=O)[C@H](N)c3ccccc3)C(=O)N2[C@H]1C(=O)O [ampicillin],Rates of non-susceptible microorganisms,[1],23%
same,susceptible isolates,[1],77%
same,MIC,[1]; [8],4 mg/L
same,MIC,[1]; [9],> 128 mg/L
same,susceptible isolates,[2]; Shigella spp.,43%
same,MIC,[2]; [20],64 mg/L
same,MIC,[2]; [21],> 128 mg/L
same,susceptibility of isolates,[3]; Aeromonas spp.,non susceptible
same,MIC,[3]; [10],> 128 mg/L
same,MIC,[3]; [11],> 128 mg/L
same,MIC,[4]; [12],2 to 64 mg/L
same,MIC,[4]; [13],16 mg/L
same,MIC,[4]; [14],64 mg/L
same,MIC,[5]; [15],32 to 64 mg/L
same,susceptibility of isolates,[5]; Yersinia enterocolitica,non susceptible
same,MIC,[5]; [16],32 mg/L
same,MIC,[5]; [17],64 mg/L
same,MIC,[6]; [18],8 mg/L
same,MIC,[6]; [19],32 mg/L
